In US9955688B2, “Biocidal aldehyde composition” (priority 2015, dated 2018):

Columns and labels:
[1] = tested on: biofilm communities of E. faecalis; assay: Biofilm formation / LIVE/DEAD staining assay on E. faecalis biofilm communities; type: cell-based; conditions: components tested separately
Excerpt: In experiments, biofilm communities of E. faecalis were created following the techniques of Bergenholtz and Chavez, J. Endo. Coating (2010), using the present formulation. […] This was confirmed by a staining LIVE/DEAD assay. […] Clearly, Glutaraldehyde alone is not as effective as BAK, nor vice versa. Together in “proper ratio” the formula is outstanding at reducing biofilm as well as killing the necessary bacteria. This synergy was confirmed by the fractional inhibitory concentration index (FICI). The FICI for a synergistic mixture, using checkerboard, gave the combination of Glut/BAK a 0.35 FICI which is inhibitory. [Greene et al., App Env Micro Vol 72: 5254-5259 (2006)]. Mixtures according to this test are synergistic when the lowest FICI is below 0.8 therefore giving credence to the present concept. Synergy of Glut/BAK is known but has not been fully tested since the tested material has been Glut/Quats (dual chains) and not BAK. […] The present determination of 4:1 (Glut:BAK), FICI independently determined, corrects this missing component to make an effective formulation. Strong synergy has been shown between Glut/BAK (FICI 0.35). The biofilm reduction/penetration ability of BAK combined with the broad spectrum biocidal activities of Glut enable and achieve, at lower concentrations, due to synergy, the destruction of the SRBs in oil/gas as well the pertinent bacteria in health care.
This was confirmed by the staining LIVE/DEAD assay. […] Glutaraldehyde alone is not as effective as BAK. Together in proper ratio the formula is outstanding at reducing biofilm as well as killing the necessary bacteria, and provides an excellent synergistic complimentary approach to eliminating the bacterial/biofilm problem.

[2] = tested on: E. Coli, P. aeruginosa, salmonella typhii, and kiebsiella; assay: MIC of disinfectants by agar dilution; type: cell-based; conditions: individually determined
Procedure: In addition to the foregoing, E. Coli, P. aeruginosa, salmonella typhii, and kiebsiella were tested using selective media and biochemical means. Disk diffusion methods were used testing disinfectant resistance by measuring zones of inhibition after eighteen hours of incubation. MICs of disinfectants were determined by agar dilution. […] The preferred determined exposure is actually 4× of Glut to BAK as determined by log reduction effectiveness. This was supported by running an MIC (inhibitory) versus a MBC (bactericidal) test. Using the McFarland standard on E. coli, with the combination Glut/BAK, the result was that the bactericidal amount was 2× the inhibitory amount in ppm. This was done via serial dilutions on media Nutrient Broth.

[3] = Check of Glutaraldehyde content when combined with BAK at the CMC; type: physicochemical
Excerpt: The multi-level mechanism of action is as follows. The Glutaraldehyde produces an inherent bacteriocidal effect. BAK lowers surface tension and thus aids in the spread of the Glut on the biofilm covered surface and serves as a binding agent between the Glut and the application surface. The BAK spreads the Glutaraldehyde on the cell surface and increases depth of penetration. Thus, the BAK and Glutaraldehyde are mutually synergistic in attacking and achieving the desired kill effect. Because BAK is a quaternary ammonium salt one would suppose that it would react adversely with the Glutaraldehyde and cause aldehyde consumption. For this reason it became mandatory to check the Glutaraldehyde content and determine if there was a decrease at the CMC. […] This is likely correct due to the small BAK concentration necessary to reach the CMC. […] As a matter of fact it acted synergistically to enhance cidal effects due to its surfactant action.

biofilm = conditions: Flow Cytometry, MetaMorph image analysis; cited from earlier work
[4] = Pendant drop surface tension measurement (Tate's equation); type: physicochemical; conditions: pendant drop method, ten drops
Excerpt: BAK's ability to repel biofilm formation as well as penetrate is based upon the physico/chemical and steric changes provoked by hydrophobic changes and electrostatic repulsion. This is due to the positively charged nitrogen that reacts with the acidic phospholipids in the cell membrane. This is the area of penetration bringing along the Glut (cidal component) increasing surface pressure which decreases the adhesive potential by affecting the osmoregularity of bacterial adhesins. […] The BAK molecules at the proper concentration are saturated or at the critical micelle concentration (CMC). When the BAK is above the CMC and the surface tension is constant the best wetting properties are achieved. The stated BAK concentration is important since low doses can actually stimulate metabolic reactions as well as cause resistance. Again the proper importance of “concentration ratios” develops the full synergistic effect. In an example the pendant drop method was used to determine surface tension activity of BAK. Ten drops were measured with a precision balance to calculate surface energy. Tate's equation was used for calculation. It was concluded that the surface tension was reduced by approximately 53%. This illustrates that the addition of the BAK to the formulation permits a better spreading of the solution.

Molecule	kill (LIVE/DEAD staining) [1]	MIC [2] [%]	reduction in Glutaraldehyde content when combined with BAK [3]	penetration of biofilm (biofilm)	bio-volume reduction [1]	surface tension reduction [4]
O=CCCCC=O [Glutaraldehyde]	45%	0.3	did not show any reduction	little or no penetration of biofilm		
benzalkonium chloride [BAK]	less so	0.13		peripheral penetration followed by inward migration	over 70 fold	approximately 53%
